Data taken from patent publication US5389644A, “1,4-dihydropyridine compounds” (priority 1992, dated 1995).

Tests used:
calcium channel = target: T1, calcium channel (Sus scrofa, UniProt A0A8W4FNC0); assay: Affinity for the calcium channel labelled with [^3 ] PN 200110, aorta smooth muscle microsome preparations; assay type: binding; details: pig aorta smooth muscle microsomes; means of three independent experiments
T1 construct: pig aorta smooth muscle microsome preparations; from tissue; host or cells: pig aorta smooth muscle microsomes
Text: The results are expressed as IC50 (M) and represent means of three independent experiments.

KB-A1 [1] = assay: Flow cytometry: intracellular accumulation of ADR, line KB-A1; assay type: cell-based, Human; details: ADR 50 μM, 5 hours
Procedure: Also measured was the effect of the compounds on the intracellular concentration of adriamycin. […] By measuring that fluorescence, it is thus possible to obtain a relative measurement of the intracellular concentration of ADR. […] The cells (5×10^5 per ml) were exposed simultaneously to ADR at a fixed concentration (50 μM) and to the tested compounds at various concentrations. After 5 hours' incubation, the intracellular accumulation of ADR was evaluated by FCM. […] The results were presented in the form of linear histograms of the intracellular ADR fluorescence. Expression of the results: for each of the histograms the mean fluorescence per channel (MEAN) was determined by the computer of the apparatus. For all experiments: a negative control (cells without ADR) fixed the autofluorescence threshold. a positive control (cells with ADR) determined the MEAN value=MN1. the "test" tubes (cells with ADR and with compound) were used to determine, for each of the compounds and at each of the concentrations, the MEAN values=MN2. The results are expressed in the form of variations from the mean fluorescence obtained for each of the "test" tubes (MN2) in relation to the mean fluorescence obtained with the positive control (MN1): VAR-MEAN=MN2-MN1. The measured parameter is thus the increase in ADR fluorescence in the presence of the tested compounds.

KB-A1 [2] = assay: Cytotoxicity: reversal of resistance to adriamycin (reversion factor), line KB-A1; assay type: cell-based, Human
Procedure: The parameter measured is the cytotoxicity of the antitumour drug, quantified in the absence and in the presence of the reversing compound. […] The compounds tested for their capacity to reverse the resistance are added at the same time as the cytotoxic agent. The cells are then incubated for 4 days.

DC-3F/AD = assay: Cytotoxicity: reversal of resistance to actinomycin D (reversion factor), line DC-3F/AD; assay type: cell-based, Chinese hamster
Procedure: The parameter measured is the cytotoxicity of the antitumour drug, quantified in the absence and in the presence of the reversing compound. Two resistant cell lines were used: 1 Chinese hamster lung line, DC-3F/AD, the resistance of which was induced by actinomycin D. […] The compounds tested for their capacity to reverse the resistance are added at the same time as the cytotoxic agent. The cells are then incubated for 4 days.

P 388/VCR = assay: In vivo increase in antitumour activity of vincristine, resistant line P 388/VCR; set-up: species or system murine leukaemia in female B6D2F1 mice
Text: This study was completed by an in vivo study, using a murine leukaemia resistant to vincristine (P 388/VCR) and using the compounds of the present invention in association with vincristine.
(§1) The sensitive parent line P 388 (murine leukaemia) and the sub-line resistant to vincristine, P 388/VCR, were supplied by NCI (Frederick, USA). The tumour cells (10^6 cells) were inoculated on day 0 into the indraperitoneal cavity of female B6D2F1 mice (Iffa Credo, France) weighing from 18 to 20 g (groups of 8 to 10 animals).
Every day for 4 days, starting from day 1, the animals received:
an administration of 25 to 150 mg/kg by i.p., p.o. or i.v. route of the compound of the present invention to be tested, as mentioned in the table 4a; then
(§2) 30 to 60 minutes later, an administration by the i.p. route of 0.25 mg/kg of vincristine (used as a reference antitumour agent).
(§3) The antitumour activity is expressed as follows: [formula]
(§4) The values are mean values obtained in independent experiments (# sem when n is greater than or equal to 3).

P 388 = assay: In vivo increase in antitumour activity of vincristine, sensitive line P388; set-up: species or system murine leukaemia in female B6D2F1 mice
Procedure: as §1
Every day for 4 days, starting from day 1, the animals received: […]
as §2, §3, §4
Using the sensitive line (P388) the tested compounds of the invention increase considerably the sensitivity of the cells to vincristine.

[3] = with VCR […] i.p., compound 50 mg/kg i.p.
[4] = with VCR […] i.p., compound 150 mg/kg p.o.
[5] = VCR 0, compound 12.5 mg/kg p.o.
[6] = with VCR […] i.p., compound 12.5 mg/kg p.o.

T1 sequence (A0A8W4FNC0 1-2067): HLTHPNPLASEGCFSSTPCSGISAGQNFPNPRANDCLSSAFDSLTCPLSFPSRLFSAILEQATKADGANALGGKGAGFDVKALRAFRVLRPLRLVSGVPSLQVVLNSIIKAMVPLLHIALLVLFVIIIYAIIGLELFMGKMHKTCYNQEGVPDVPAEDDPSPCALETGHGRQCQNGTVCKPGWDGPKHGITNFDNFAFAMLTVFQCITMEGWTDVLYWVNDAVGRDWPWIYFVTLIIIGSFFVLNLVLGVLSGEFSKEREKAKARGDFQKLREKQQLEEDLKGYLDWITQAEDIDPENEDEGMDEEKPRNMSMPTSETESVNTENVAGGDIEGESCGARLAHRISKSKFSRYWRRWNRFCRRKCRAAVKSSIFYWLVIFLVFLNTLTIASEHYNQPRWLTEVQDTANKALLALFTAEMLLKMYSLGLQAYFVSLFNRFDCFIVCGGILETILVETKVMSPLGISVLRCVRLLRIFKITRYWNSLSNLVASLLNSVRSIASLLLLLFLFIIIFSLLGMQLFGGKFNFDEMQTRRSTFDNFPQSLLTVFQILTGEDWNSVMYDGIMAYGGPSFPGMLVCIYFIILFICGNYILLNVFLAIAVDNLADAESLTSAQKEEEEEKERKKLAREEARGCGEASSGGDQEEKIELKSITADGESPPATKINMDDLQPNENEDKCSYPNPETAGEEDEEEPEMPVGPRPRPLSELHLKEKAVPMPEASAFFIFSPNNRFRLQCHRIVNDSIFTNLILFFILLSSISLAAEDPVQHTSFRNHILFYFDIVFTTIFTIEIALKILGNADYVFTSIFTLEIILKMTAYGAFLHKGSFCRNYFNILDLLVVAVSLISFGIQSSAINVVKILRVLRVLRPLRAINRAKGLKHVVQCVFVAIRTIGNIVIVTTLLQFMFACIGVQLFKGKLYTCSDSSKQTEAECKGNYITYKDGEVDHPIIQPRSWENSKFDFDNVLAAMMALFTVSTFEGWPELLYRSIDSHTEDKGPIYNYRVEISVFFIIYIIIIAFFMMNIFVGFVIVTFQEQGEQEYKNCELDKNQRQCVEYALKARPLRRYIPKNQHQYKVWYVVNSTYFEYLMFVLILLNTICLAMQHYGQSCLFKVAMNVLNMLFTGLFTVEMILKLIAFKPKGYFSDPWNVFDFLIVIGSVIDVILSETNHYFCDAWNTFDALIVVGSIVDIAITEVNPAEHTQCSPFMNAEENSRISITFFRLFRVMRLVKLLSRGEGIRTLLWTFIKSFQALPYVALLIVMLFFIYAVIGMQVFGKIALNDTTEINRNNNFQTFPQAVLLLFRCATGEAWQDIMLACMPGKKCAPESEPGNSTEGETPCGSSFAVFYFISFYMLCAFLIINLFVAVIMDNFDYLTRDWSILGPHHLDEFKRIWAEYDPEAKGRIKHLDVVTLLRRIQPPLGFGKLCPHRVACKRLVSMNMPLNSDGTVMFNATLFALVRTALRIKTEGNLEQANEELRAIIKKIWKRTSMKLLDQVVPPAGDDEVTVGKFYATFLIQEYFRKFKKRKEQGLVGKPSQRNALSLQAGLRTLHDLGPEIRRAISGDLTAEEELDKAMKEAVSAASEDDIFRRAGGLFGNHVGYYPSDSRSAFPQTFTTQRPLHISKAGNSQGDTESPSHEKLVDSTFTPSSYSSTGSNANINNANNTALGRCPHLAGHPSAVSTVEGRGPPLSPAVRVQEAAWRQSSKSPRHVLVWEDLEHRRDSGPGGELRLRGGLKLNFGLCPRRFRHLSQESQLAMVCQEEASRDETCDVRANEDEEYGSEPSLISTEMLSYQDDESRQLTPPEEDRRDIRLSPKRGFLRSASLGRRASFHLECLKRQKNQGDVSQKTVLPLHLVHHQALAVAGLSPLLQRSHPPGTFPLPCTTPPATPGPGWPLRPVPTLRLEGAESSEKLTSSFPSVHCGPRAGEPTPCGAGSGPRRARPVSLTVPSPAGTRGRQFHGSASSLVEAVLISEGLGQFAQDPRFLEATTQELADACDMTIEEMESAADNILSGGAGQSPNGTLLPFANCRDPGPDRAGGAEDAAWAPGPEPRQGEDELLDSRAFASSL

Compound	IC50 (calcium channel)	increase in the ADR fluorescence (VAR-MEAN) (KB-A1 [1]; compound 1 μM)	increase in the ADR fluorescence (VAR-MEAN) (KB-A1 [1]; compound 5 μM)	increase in the ADR fluorescence (VAR-MEAN) (KB-A1 [1]; compound […])	reversion factor (RF) (KB-A1 [2]; compound 1 μM)	reversion factor (RF) (KB-A1 [2]; compound 5 μM)	reversion factor (RF) (DC-3F/AD; compound 1 μM)	reversion factor (RF) (DC-3F/AD; compound 5 μM)	T/C (P 388/VCR; VCR 0, compound 50 mg/kg i.p.)	T/C (P 388/VCR; VCR 0, compound 150 mg/kg p.o.)	T/C (P 388/VCR; [3])	T/C (P 388/VCR; [4])	other results
CCOC(=O)C1=C(COCCOCCNCCc2ccccn2)NC(C)=C(C(=O)OC)C1c1cccc(Cl)c1Cl (single isomer, unassigned) [Example 20, d-2-{2-[[2-(2-(N-pyrid-2-yl)ethylamino)ethoxy]ethoxy]methyl}-4-(2,3-dichlorophenyl)-3-ethoxycarbonyl-5-methoxycarbonyl-6-methyl-1,4-dihydropyridine]	2.1 µM	–	–	–	–	–	–	–	–	–	–	–	–
CCOC(=O)C1=C(COCCOCCNCc2ccc(F)cc2)NC(C)=C(C(=O)OC)C1c1cccc(Cl)c1Cl (stereo not drawn) [Example 4, d-2-{[2-(2-(N-p-fluorobenzylamino)ethoxy)ethoxy]methyl}-4-(2,3-dichlorophenyl)-3-ethoxycarbonyl-5-methoxycarbonyl-6-methyl-1,4-dihydropyridine]	–	2.0	18.6	7.0	26.0	473.7	23.0	3,962.3	100%	110%	176%	181%	–
CCOC(=O)C1=C(COCCOCCNCc2ccc(C#N)cc2)NC(C)=C(C(=O)OC)C1c1cccc(Cl)c1Cl (stereo not drawn) [Example 8, d-2-{[2-(2-(N-p-cyanobenzylamino)ethoxy)ethoxy]methyl}-4(2,3-dichlorophenyl)-3-ethoxycarbonyl-5-methoxycarbonyl-6-methyl-1,4-dihydropyridine]	–	2.0	24.2	9.4	6.9	136.0	11.4	1,319.9	–	–	–	–	Survivors on day 60 (P 388; VCR 0, compound 150 mg/kg p.o.): 0/8; T/C (P 388; VCR 0, compound 150 mg/kg p.o.): 106%; Survivors on day 60 (P 388; [4]): 2/8; T/C (P 388; [4]): 294%
CCOC(=O)C1=C(COCCOCCNCc2cccc3ccccc23)NC(C)=C(C(=O)OC)C1c1cccc(Cl)c1Cl (stereo not drawn) [Example 11, d-2-{[2-(2-(N-naphth-1-ylmethylamino)ethoxy)ethoxy]methyl}-4-(2,3-dichlorophenyl)-3-ethoxycarbonyl-5-methoxycarbonyl-6-methyl-1,4-dihydropyridine]	–	0.2	31.0	18.2	1.7	336.0	1.0	2,442.4	100%	99%	146%	177%	–
CCOC(=O)C1=C(COCCOCCNCc2ccc3ccccc3c2)NC(C)=C(C(=O)OC)C1c1cccc(Cl)c1Cl (stereo not drawn) [Example 12, d-2-{[2-(2-(N-naphth-2-ylmethylamino)ethoxy)ethoxy]methyl}-4-(2,3-dichlorophenyl)-3-ethoxycarbonyl-5-methoxycarbonyl-6-methyl-1,4-dihydropyridine]	1.3 µM	–	–	–	1.2	125.4	1.1	1,320.1	–	–	–	–	–
CCOC(=O)C1=C(COCCOCCNCc2ccncc2)NC(C)=C(C(=O)OC)C1c1cccc(Cl)c1Cl (stereo not drawn) [Example 15, d-2-{[2-(2-(N-pyrid-4-ylmethylamino)ethoxy)ethoxy]methyl}-4-(2,3-dichlorophenyl)-3-ethoxycarbonyl-5-methoxycarbonyl-6-methyl-1,4-dihydropyridine]	–	7.0	38.6	16.1	12.1	281.9	301.4	6,510.3	–	–	–	–	Survivors on day 60 (P 388; [5]): 0/8; T/C (P 388; [5]): 101%; Survivors on day 60 (P 388; [6]): 3/8; T/C (P 388; [6]): 540%; T/C (P 388/VCR; VCR 0, compound 25 mg/kg i.p.): 109%; T/C (P 388/VCR; VCR 0, compound 25 mg/kg i.v.): 94%; T/C (P 388/VCR; VCR 0, compound 25 mg/kg p.o.): 112%; T/C (P 388/VCR; with VCR […] i.p., compound 25 mg/kg i.p.): 262%; T/C (P 388/VCR; with VCR […] i.p., compound 25 mg/kg i.v.): 186%; T/C (P 388/VCR; with VCR […] i.p., compound 25 mg/kg p.o.): 180%
CCOC(=O)C1=C(COCCOCCNCc2ccccn2)NC(C)=C(C(=O)OC)C1c1cccc(Cl)c1Cl (stereo not drawn) [Example 16, d-2-{[2-(2-(N-pyrid-2-ylmethylamino)ethoxy)ethoxy]methyl}-4-(2,3-dichlorophenyl)-3-ethoxycarbonyl-5-methoxycarbonyl-6-methyl-1,4-dihydropyridine]	1.6 µM	–	–	–	13.9	122.4	3.4	8,248.4	–	–	–	–	–
CCOC(=O)C1=C(COCCOCCNCc2cccnc2)NC(C)=C(C(=O)OC)C1c1cccc(Cl)c1Cl (stereo not drawn) [Example 17, d-2-{[2-(2-(N-pyrid-3-ylmethylamino)ethoxy)ethoxy]methyl}-4-(2,3-dichlorophenyl)-3-ethoxycarbonyl-5-methoxycarbonyl-6-methyl-1,4-dihydropyridine]	1.4 µM	–	–	–	10.5	120.7	3.7	8,600.0	–	–	–	–	–
CCOC(=O)C1=C(COCCOCCNCc2c[nH]c3ccccc23)NC(C)=C(C(=O)OC)C1c1cccc(Cl)c1Cl (stereo not drawn) [Example 22, d-2-{[2-(2-[N-(indol-3-yl)methylamino]ethoxy)ethoxy]methyl}-4-(2,3-dichlorophenyl)-3-ethoxycarbonyl-5-methoxycarbonyl-6-methyl-1,4-dihydropyridine]	3.3 µM	–	–	–	–	–	–	–	–	–	–	–	–
CCOC(=O)C1=C(COCCOCCNC2c3ccccc3CCc3ccccc32)NC(C)=C(C(=O)OC)C1c1cccc(Cl)c1Cl (stereo not drawn) [Example 28, d-2-{[2-(2-[N-dibenzo[a,d]cyclohept-5-ylamino)ethoxy)ethoxy]methyl}-4-(2,3-dichlorophenyl)-3-ethoxycarbonyl-5-methoxycarbonyl-6-methyl-1,4-dihydropyridine]	–	–	–	–	–	–	1.4	447.3	107%	99%	180%	207%	–
